Test in data set [1]: not given
This is another data set of the same source.

In data set [2] the target is His-tagged recombinant human TrkA (cytoplasmic domain) (Homo sapiens (Human), UniProt P04629). The data set is described as follows: TrkA Binding Assay (LanthaScreen Eu Kinase Binding Assay). As to the method:
The ability of a compound to bind to TrkA was measured by Invitrogen's LanthaScreen™ Eu Kinase Binding Assay. […] After a 60-minute incubation at 22° C., the reaction was measured using the EnVision via TR-FRET dual wavelength detection, and the POC was calculated from the emission ratio. The compound dose response data was fit to a 4-parameter logistic model and IC50 was defined as the concentration of compound at 50 POC.
Background: Time-resolved FRET reads energy transfer from a long-lived donor to a nearby acceptor.

The target of data set [3] is histidine-tagged recombinant human TrkA, cytoplasmic domain (Homo sapiens (Human), UniProt P04629). In words: TrkA ELISA Assay. Also: 2.5 nM TrkA. It is filed as biochemical. The conditions noted are these: read-out: TrkA Elisa Enzyme Assay IC50. The procedure:
An enzyme-linked immunosorbant assay (ELISA) was used to assess TrkA kinase activity in the presence of inhibitors. Immulon 4HBX 384-well microtiter plates (Thermo part #8755) were coated with a 0.025 mg/mL solution of poly (Glu, Ala, Tyr; 6:3:1; Sigma P3899). […] The assay buffer consisted of 25 mM MOPS pH 7.5, 0.005% (v/v) Triton X-100 and 5 mM MgCl2. The reaction mixture was removed from the plate by washing with PBS containing 0.1% (v/v) Tween 20. The phosphorylated reaction product was detected using 0.2 μg/mL of a phosphotyrosine specific monoclonal antibody (clone PY20) conjugated to horseradish peroxidase in conjunction with the TMB Peroxidase Substrate System (KPL). After the addition of 1M phosphoric acid, the chromogenic substrate color intensity was quantitated via absorbance at 450 nm. IC50 values were calculated using either a 4 or 5-parameter logistic curve fit.
Table 1 provides averaged IC50 values for compounds of the invention when tested in this assay.
(In general: An ELISA detects its analyte on a solid surface through an enzyme-linked reagent.)

Read-outs that look alike come from different tables or passages of the source.

By IC50 is commonly meant the point on the concentration scale where inhibition reaches its midpoint.

Chain of His-tagged recombinant human TrkA (cytoplasmic domain) (P04629 440-796): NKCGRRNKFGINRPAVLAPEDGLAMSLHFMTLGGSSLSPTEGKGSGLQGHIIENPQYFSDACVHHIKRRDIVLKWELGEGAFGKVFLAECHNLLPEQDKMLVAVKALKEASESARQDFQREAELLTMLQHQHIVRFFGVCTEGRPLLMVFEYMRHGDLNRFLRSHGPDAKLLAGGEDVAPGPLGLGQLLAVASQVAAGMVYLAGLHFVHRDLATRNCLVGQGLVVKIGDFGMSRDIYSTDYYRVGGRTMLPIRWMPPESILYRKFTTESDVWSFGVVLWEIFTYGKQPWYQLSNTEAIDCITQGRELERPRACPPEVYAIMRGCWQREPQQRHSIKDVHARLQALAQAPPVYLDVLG
Chain of histidine-tagged recombinant human TrkA, cytoplasmic domain (P04629 440-796): as above

`O=C1Nc2ccnn2CCOc2ncc(F)cc2[C@H]2CCCN2c2ccn3ncc1c3n2` [Example 38, (6R)-9-fluoro-13-oxa-2,11,16,17,21,25,26,29-octaazahexacyclo [21.5.2.0^2,6.0^7,12.0^16,20.0^26,30]triaconta-1(29),7,9,11,17,19,23(30),24,27-nonaen-22-one] came in with a ring closure, isolated yield (from O=C(Nc1ccnn1CCO)c1cnn2ccc(N3CCC[C@@H]3c3cc(F)cnc3O)nc12, ether bond, 15-membered ring, DEAD/PPh3, THF, 14.3 mM, 2 steps) of 1.5%. For the same compound, in data set [1] (from COc1ncc(F)cc1[C@H]1CCCN1c1ccn2ncc(C(=O)Nc3ccnn3CCO[Si](c3ccccc3)(c3ccccc3)C(C)(C)C)c2n1, ether bond, DEAD/PPh3, THF, 14.25 mM, 25.0 °C, 18.0 h, 2 steps), the ring closure, yield of all isomers was 1.5%. For the same compound, the IC50 in data set [2] was 0.001 to 0.1 µM.
`O=C1NC[C@H](O)Cn2cc(F)cc(c2=O)[C@H]2CCCN2c2ccn3ncc1c3n2` [Example 5, (6R,13S)-9-fluoro-13-hydroxy-2,11,15,19,20,23-hexaazapentacyclo-[15.5.2.1^7,11.0^2,6.0^20,24]pentacosa-1(23),7,9,17(24),18,21-hexaene-16,25-dione]: the ring closure, isolated yield (from O=C(NC[C@H](O)CCl)c1cnn2ccc(N3CCC[C@@H]3c3cc(F)c[nH]c3=O)nc12, other bond, 14-membered ring, Cs2CO3, DMF, […], 85.0 °C, 2.0 h) came out at 12%. In addition, the ring closure, yield of all isomers in data set [1] (from O=C(NC[C@H](O)CCl)c1cnn2ccc(N3CCC[C@@H]3c3cc(F)c[nH]c3=O)nc12, amine bond, Cs2CO3, DMF, […], 85.0 °C, 2.0 h) is 27%. In addition, the IC50 in data set [2] and in data set [3] was 0.001 to 0.1 µM throughout.
For the compound `C[C@@H]1CNC(=O)c2cnn3ccc(nc23)N2CCC[C@@H]2c2cc(F)cn(c2=O)C1` [Example 34, (6R,13R)-9-fluoro-13-methyl-2,11,15,19,20,23-hexaazapentacyclo [15.5.2.1^7,11.0^2,6.0^20,24]pentacosa-1(23),7,9,17(24),18,21-hexaene-16,25-dione], for the setting “from C[C@H](CN)Cn1cc(F)cc([C@H]2CCCN2c2ccn3ncc(C(=O)O)c3n2)c1=O, amide bond, 14-membered ring, HATU/DIEA, DMF, […], 3.0 h, 2 steps”, the ring closure, isolated yield came out at 10%. The compound further gave a ring closure, yield of all isomers in data set [1] (from COC(=O)c1cnn2ccc(N3CCC[C@@H]3c3cc(F)cn(C[C@H](C)CN)c3=O)nc12, amide bond, HATU, DMF, […], 3.0 h, 2 steps) of 10%. The 50% inhibitory concentration (IC50) in data set [2] was 0.001 to 0.1 µM.
With `O=C1NCCCn2cc(F)cc(c2=O)[C@H]2CCCN2c2ccn3ncc1c3n2` [Example 1, (6R)-9-fluoro-2,11,15,19,20,23-hexaazapentacyclo[15.5.2.1^7,11.0^2,6.0^20,24]pentacosa-1(23),7,9,17(24),18,21-hexaene-16,25-dione], the ring closure, isolated yield (from NCCCn1cc(F)cc([C@H]2CCCN2c2ccn3ncc(C(=O)O)c3n2)c1=O, amide bond, 14-membered ring, EDCI/HOBt/TEA, DMF/DCM 1:2, 26.7 mM, 6.0 h) worked out at 39%. This compound also gave a ring closure, yield of all isomers in data set [1] (from NCCCn1cc(F)cc([C@H]2CCCN2c2ccn3ncc(C(=O)O)c3n2)c1=O, amide bond, EDCI/HOBt, DCM, 26.7 mM, 25.0 °C, 6.0 h) of 39%. Also, the IC50 in data set [2] and in data set [3] was 0.001 to 0.1 µM each time.
In turn, `O=C1NC[C@@H](O)COc2ncc(F)cc2[C@H]2CCCN2c2ccn3ncc1c3n2` [Example 7, (6R,15R)-9-fluoro-15-hydroxy-13-oxa-2,11,17,21,22,25-hexaazapentacyclo-[17.5.2.0^2,6.0^7,12.0^22,26]hexacosa-1(25),7,9,11,19(26),20,23-heptaen-18-one] registered a ring closure, yield of all isomers in data set [1] (from O=C(NC[C@@H](O)CCl)c1cnn2ccc(N3CCC[C@@H]3c3cc(F)c[nH]c3=O)nc12, ether bond, Cs2CO3, DMF, 98.6 mM, 85.0 °C, 1.0 h) of 40%. In addition, the IC50 in data set [2] and in data set [3] was 0.001 to 0.1 µM throughout.
Take `O=C1OCCn2cc(F)cc(c2=O)[C@H]2CCCN2c2ccn3ncc1c3n2` [Example 15, (6R)-9-fluoro-14-oxa-2,11,18,19,22-pentaazapentacyclo[14.5.2.1^7,11.0^2,6.0^19,23]tetracosa-1(22),7,9,16(23), 17,20-hexaene-15,24-dione]: the ring closure, isolated yield (from O=C(OCCCl)c1cnn2ccc(N3CCC[C@@H]3c3cc(F)c[nH]c3=O)nc12, ether bond, 13-membered ring, Cs2CO3, DMF, 22.2 mM, 90.0 °C, 16.0 h) is 22%. The IC50 in data set [3] lay within 0.1 to 3 µM.
As to `O=C1NCCCOc2ncc(F)cc2[C@H]2CCCN2c2ccn3ncc1c3n2` [Example 3, (6R)-9-fluoro-13-oxa-2,11,17,21,22,25-hexaazapentacyclo[17.5.2.0^2,6.0^7,12.0^22,26]hexacosa-1(25),7,9,11,19(26),20,23-heptaen-18-one], in data set [1] (from O=C(NCCCCl)c1cnn2ccc(N3CCC[C@@H]3c3cc(F)cnc3O)nc12, ether bond, Cs2CO3, DMF, […], 85.0 °C, 16.0 h), the ring closure, yield of all isomers worked out at 44%. The IC50 in data set [2] and in data set [3] was 0.001 to 0.1 µM in each case.

Values taken from patent US9718822B2, “Macrocyclic compounds as Trk kinase inhibitors” (Array BioPharma, Inc., priority 2010, dated 2017).
